Like-named read-outs stand apart in the source and are kept apart here.
Tests used:
mouse macrophages = test: stimulated release of TNF-α from mouse macrophages; assay type: cell-based; conditions: for EC50: Macrophage
Outline: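 EC50 derived from dose-response curves for stimulated TNF-α release from mouse macrophages.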

[1] = tested on: differentiated human THP-1 cells; test: stimulated release of TNF-α from differentiated human THP-1 cells (ELISA, dose-response); assay type: cell-based; conditions: for EC50: Homo sapiens
Outline: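 Human THP-1 cells were PMA-differentiated toward macrophages, and stimulated TNF-α release was measured by ELISA. EC50 values were taken from dose-response curves.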

[2] = table of 125-132 (one lipid side chain, R and S), mouse macrophages, read-out: EC50 (nM) (mouse)
[3] = THP-1, table of 125-132 (one lipid side chain, R and S), human THP-1 cells, read-out: EC50 (nM) (THP-1)
[4] = Table 7, TNF-α release from mouse macrophages, read-out: EC50 (nM) (mouse)
[5] = THP-1, Table 7, TNF-α release from human THP-1 cells, read-out: EC50 (nM) (THP-1)
[6] = table of functionalized derivatives 147-151, mouse macrophages, read-out: EC50 (nM) (mouse)
[7] = THP-1, table of functionalized derivatives 147-151, human THP-1 cells, read-out: EC50 (nM) (THP-1)
[8] = Table 1, TNF-α release from mouse macrophages, read-out: EC50 (nM) (mouse)
[9] = THP-1, Table 1, TNF-α release from human THP-1 cells, read-out: EC50 (nM) (THP-1)

## O=C(N[C@@H]1C[C@H]1c1ccccc1)[C@H]1CN(C(=O)c2ccc(C(=O)N3C[C@H](C(=O)N[C@@H]4C[C@H]4c4ccccc4)[C@@H](C(=O)N[C@@H]4C[C@H]4c4ccccc4)C3)cc2)C[C@@H]1C(=O)N[C@@H]1C[C@H]1c1ccccc1 [Compound 21, (3R,3′R,4R,4′R)-1,1′-Terephthaloylbis-(N^3,N^4-bis((1R,2S)-2-phenylcyclopropyl)pyrrolidine-3,4-dicarboxamide)]
Mouse macrophages; Mus musculus, Scheme 1, footnote b, read-out: EC50 TNF-α release from mouse macrophages
  EC50: > 5000 nM
[1]; THP-1, Scheme 1, footnote a, read-out: EC50 TNF-α release from human THP-1 cells
  EC50: > 5000 nM

## CCCCCCCCCCCCCCNC(=O)[C@@H]1CN(C(=O)c2ccc(C(=O)N3C[C@@H](C(=O)N[C@H]4C[C@@H]4c4ccccc4)[C@H](C(=O)N[C@H]4C[C@@H]4c4ccccc4)C3)cc2)C[C@H]1C(=O)NCCCCCCCCCCCCCC [Compound 134, (3S,4S)-1-(4-((3S,4S)-3,4-Bis(((1S,2R)-2-phenylcyclopropyl)carbamoyl)pyrrolidine-1-carbonyl)benzoyl)-N^3,N^4-ditetradecylpyrrolidine-3,4-dicarboxamide]
Mouse macrophages; table of 133-139 (two lipid side chains), mouse macrophages, read-out: EC50 (nM) (mouse)
  EC50: 620 nM
[1]; THP-1, table of 133-139 (two lipid side chains), human THP-1 cells, read-out: EC50 (nM) (THP-1)
  EC50: 1.3 nM

## CCCCCCCCCCNC(=O)[C@@H]1CCN(C(=O)c2ccc(C(=O)N3C[C@@H](C(=O)N[C@H]4C[C@@H]4c4ccccc4)[C@H](C(=O)N[C@H]4C[C@@H]4c4ccccc4)C3)cc2)C1 [Compound 128, (3S,4S)-1-(4-((R)-3-(Decylcarbamoyl)pyrrolidine-1-carbonyl)benzoyl)—N^3,N^4-bis((1S,2R)-2-phenyl-cyclopropyl)pyrrolidine-3,4-dicarboxamide]
Mouse macrophages; [2]
  EC50: 2400 nM
[1]; [3]
  EC50: 210 nM

## O=C(N[C@H]1C[C@@H]1c1ccccc1)[C@@H]1CN(C(=O)c2ccc(C(=O)N3C[C@@H](C(=O)N[C@H]4C[C@@H]4c4ccccc4)[C@H](C(=O)N[C@H]4C[C@@H]4c4ccccc4)C3)c(O)c2)C[C@H]1C(=O)N[C@H]1C[C@@H]1c1ccccc1 [Compound 53, (3S,3′S,4S,4′S)-1,1′-(2-Hydroxyterephthaloyl)-bis(N^3,N^4-bis((1S,2R)-2-phenylcyclopropyl)pyrrolidine-3,4-dicarboxamide)]
Mouse macrophages; Table 3, TNF-α release from mouse macrophages, read-out: EC50 (nM) (mouse)
  EC50: 130 nM
[1]; THP-1, Table 3, TNF-α release from human THP-1 cells, read-out: EC50 (nM) (THP-1)
  EC50: 0.2 nM

## O=C(N[C@H]1C[C@@H]1c1ccccc1)[C@@H]1CN(C(=O)Cc2cccc(CC(=O)N3C[C@@H](C(=O)N[C@H]4C[C@@H]4c4ccccc4)[C@H](C(=O)N[C@H]4C[C@@H]4c4ccccc4)C3)c2)C[C@H]1C(=O)N[C@H]1C[C@@H]1c1ccccc1 [Compound 46, (3S,3′S,4S,4′S)-1,1′-((1,3-Phenylene)diacetyl)-bis(N^3,N^4-bis((1S,2R)-2-phenylcyclopropyl)-pyrrolidine-3,4-dicarboxamide)]
Mouse macrophages; Table 2, TNF-α release from mouse macrophages, read-out: EC50 (nM) (mouse)
  EC50: > 5000 nM
[1]; THP-1, Table 2, TNF-α release from human THP-1 cells, read-out: EC50 (nM) (THP-1)
  EC50: > 5000 nM

## O=C(NCCc1ccc(F)cc1)[C@@H]1CN(C(=O)[C@H]2CC[C@@H](C(=O)N3C[C@@H](C(=O)NCCc4ccc(F)cc4)[C@H](C(=O)NCCc4ccc(F)cc4)C3)CC2)C[C@H]1C(=O)NCCc1ccc(F)cc1 [Compound 108, (3S,3′S,4S,4′S)-1,1′-((1R,4R)-Cyclohexane-1,4-dicarbonyl)bis(N^3,N^4-bis(4-fluorophenethyl)-pyrrolidine-3,4-dicarboxamide)]
Mouse macrophages; [4]
  EC50: > 5000 nM
[1]; [5]
  EC50: > 5000 nM

## CC(C)(C)OC(=O)COc1cc(C(=O)N2C[C@@H](C(=O)N[C@H]3C[C@@H]3c3ccccc3)[C@H](C(=O)N[C@H]3C[C@@H]3c3ccccc3)C2)ccc1C(=O)N1C[C@@H](C(=O)N[C@H]2CC2c2ccccc2)[C@H](C(=O)N[C@H]2C[C@@H]2c2ccccc2)C1 (stereo partly drawn) [Compound 147, tert-Butyl 2-(2,5-Bis((3S,4S)-3,4-bis(((1S,2R)-2-phenylcyclopropyl)carbamoyl)-pyrrolidine-1-carbonyl)phenoxy)acetate]
Mouse macrophages; [6]
  EC50: 260 nM
[1]; [7]
  EC50: 40 nM

## CCCCCCCCCCCCCCNC(=O)[C@H]1CCN(C(=O)c2ccc(C(=O)N3C[C@@H](C(=O)N[C@H]4C[C@@H]4c4ccccc4)[C@H](C(=O)N[C@H]4C[C@@H]4c4ccccc4)C3)cc2)C1 [Compound 130, (3S,4S)—N^3,N^4-Bis((1S,2R)-2-phenylcyclopropyl)-1-(4-((S)-3-(tetradecylcarbamoyl)pyrrolidine-1-carbonyl)benzoyl)pyrrolidine-3,4-dicarboxamide]
Mouse macrophages; [2]
  EC50: 240 nM
[1]; [3]
  EC50: 4 nM

## CCCCNC(=O)[C@@H]1CN(C(=O)c2ccc(C(=O)N3C[C@@H](C(=O)NCCCC)[C@H](C(=O)NCCCC)C3)cc2)C[C@H]1C(=O)NCCCC [Compound 146, (3S,3′S,4S,4′S)-1,1′-Terephthaloylbis(N^3,N^4-dibutylpyrrolidine-3,4-dicarboxamide)]
Mouse macrophages; table of 140-146 (four lipid side chains), mouse macrophages, read-out: EC50 (nM) (mouse)
  EC50: > 5000 nM
[1]; THP-1, table of 140-146 (four lipid side chains), human THP-1 cells, read-out: EC50 (nM) (THP-1)
  EC50: > 5000 nM

## O=C(NCCc1ccc(F)cc1)[C@@H]1CN(C(=O)c2ccc(C(=O)N3C[C@@H](C(=O)NCCc4ccc(F)cc4)[C@H](C(=O)NCCc4ccc(F)cc4)C3)c(O)c2)C[C@H]1C(=O)NCCc1ccc(F)cc1 [Compound 110, (3S,3′S,4S,4′S)-1,1′-(2-Hydroxy-terephthaloyl)-bis(N^3,N^4-bis(4-fluorophenethyl)-pyrrolidine-3,4-dicarboxamide)]
Mouse macrophages; [4]
  EC50: > 5000 nM
[1]; [5]
  EC50: 130 nM

## O=C(NCCc1ccc(F)cc1)[C@@H]1CN(C(=O)c2ccc(C(=O)N3C[C@@H](C(=O)NCCc4ccc(F)cc4)[C@H](C(=O)NCCc4ccc(F)cc4)C3)cc2)C[C@H]1C(=O)NCCc1ccc(F)cc1 [Compound 4, (3S,3′S,4S,4′S)-1,1′-Terephthaloylbis(N^3,N^4-bis(4-fluorophenethyl)-pyrrolidine-3,4-dicarboxamide)]
Mouse macrophages; [4]
  EC50: > 5000 nM
[1]; [5]
  EC50: 50 nM
[1]; THP-1, running text, read-out: EC50, stimulated release of TNF-α from differentiated human THP-1 cells
  EC50: 50 nM
[1]; human THP-1 cells, single enantiomer versus its all racemate mixture
  fold more potent than the all racemate: 3 fold

## O=C(N[C@H]1C[C@@H]1c1ccccc1)[C@@H]1CN(C(=O)[C@H]2CC[C@@H](C(=O)N3C[C@@H](C(=O)N[C@H]4C[C@@H]4c4ccccc4)[C@H](C(=O)N[C@H]4C[C@@H]4c4ccccc4)C3)CC2)C[C@H]1C(=O)N[C@H]1C[C@@H]1c1ccccc1 [Compound 43, (3S,3′S,4S,4′S)-1,1′-(cis-1,4-Cyclohexane-dicarbonyl)bis(N^3,N^4-bis((1S,2R)-2-phenylcyclopropyl)-pyrrolidine-3,4-dicarboxamide)]
Mouse macrophages; [8]
  EC50: > 5000 nM
[1]; [9]
  EC50: > 5000 nM

## CC(C)(C)OC(=O)COCCOCCOCC(=O)Nc1cc(C(=O)N2C[C@@H](C(=O)N[C@H]3C[C@@H]3c3ccccc3)[C@H](C(=O)N[C@H]3C[C@@H]3c3ccccc3)C2)ccc1C(=O)N1C[C@@H](C(=O)N[C@H]2C[C@@H]2c2ccccc2)[C@H](C(=O)N[C@H]2C[C@@H]2c2ccccc2)C1 [Compound 150, tert-Butyl 2-(2-(2-(2-((2,5-Bis((3S,4S)-3,4-bis(((1S,2R)-2-phenylcyclopropyl)carbamoyl)-pyrrolidine-1-carbonyl)phenyl)amino)-2-oxoethoxy)ethoxy)ethoxy)acetate]
Mouse macrophages; [6]
  EC50: 130 nM
[1]; [7]
  EC50: 15 nM

## O=C(NCCc1ccc(F)cc1)[C@H]1CN(C(=O)c2ccc(C(=O)N3C[C@@H](C(=O)N[C@H]4C[C@@H]4c4ccccc4)[C@H](C(=O)N[C@H]4C[C@@H]4c4ccccc4)C3)cc2)C[C@@H]1C(=O)NCCc1ccc(F)cc1 [Compound 115]
Mouse macrophages; tested up to 5 μM where stated
  activity in stimulating TNF-α release from mouse macrophages (in words): inactive
[1]; human THP-1 cells
  fold less active than 114 in human THP-1 cells: 5 fold

## O=C(N[C@H]1C[C@@H]1c1ccccc1)C1CN(C(=O)C#CC(=O)N2C[C@@H](C(=O)N[C@H]3C[C@@H]3c3ccccc3)[C@H](C(=O)N[C@H]3C[C@@H]3c3ccccc3)C2)C[C@H]1C(=O)N[C@H]1C[C@@H]1c1ccccc1 (stereo partly drawn) [Compound 35, (3S,3′S,4S,4′S)-1,1′-(But-2-ynedioyl)-bis(N^3,N^4-bis((1S,2R)-2-phenylcyclopropyl)-pyrrolidine-3,4-dicarboxamide)]
Mouse macrophages; [8]
  EC50: > 5000 nM
[1]; [9]
  EC50: > 5000 nM

## O=C(NCCc1ccc(F)cc1)[C@@H]1CN(C(=O)C#CC(=O)N2C[C@@H](C(=O)NCCc3ccc(F)cc3)[C@H](C(=O)NCCc3ccc(F)cc3)C2)C[C@H]1C(=O)NCCc1ccc(F)cc1 [Compound 100, (3S,3′S,4S,4′S)-1,1′-(But-2-ynedi-oyl)bis(N^3,N^4-bis(4-fluorophenethyl)pyrrolidine-3,4-dicarboxamide)]
Mouse macrophages; [4]
  EC50: > 5000 nM
[1]; [5]
  EC50: > 5000 nM

## CC(C)(C)OC(=O)CCOCCOCCOCCOc1cc(C(=O)N2C[C@@H](C(=O)N[C@H]3C[C@@H]3c3ccccc3)[C@H](C(=O)N[C@H]3C[C@@H]3c3ccccc3)C2)ccc1C(=O)N1C[C@@H](C(=O)N[C@H]2C[C@@H]2c2ccccc2)[C@H](C(=O)N[C@H]2C[C@@H]2c2ccccc2)C1 [Compound 148, tert-Butyl 3-(2-(2-(2-(2,5-Bis((3S,4S)-3,4-bis(((1S,2R)-2-phenyl-cyclopropyl)carbamoyl)-pyrrolidine-1-carbonyl)-phenoxy)ethoxy)ethoxy)-ethoxy)propanoate]
Mouse macrophages; [6]
  EC50: > 5000 nM
[1]; [7]
  EC50: 190 nM

From patent publication US11040959B2, “Diprovocims: a new and potent class of TLR agonists” (The Scripps Research Institute, priority 2016, dated 2021)
